Data as given in patent publication US12685312B2, “Sulfonamide apyrase inhibitors” (Texas Crop Science, Inc., priority 2022, dated 2026).

Each compound was assayed on apyrase (assay: Screen for apyrase inhibitors (Method 1, in vitro phosphate-release absorbance assay)). Details: inhibitor conc at 1 mM stock, 1 hr room temperature, absorbance 630 nm; rounded average of two assay results.
Type: biochemical
Method in brief: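 Phosphate-release colorimetric assay (Windsor method) in 60 mM Hepes, 3 mM MgCl2, 3 mM CaCl2, 3 mM ATP, pH 6.5, with compound or DMSO control added. Released phosphate developed with ammonium molybdate and ascorbic acid/TCA, then stopped with citrate/acetic acid.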

Row | Compound | % Inhibition of Apyrase [%]
1 | Cc1ccccc1NS(=O)(=O)c1ccc(C(=O)Nc2cccc([N+](=O)[O-])c2C)cc1 [I-404, N-(2-methyl-3-nitrophenyl)-4-(N-(o-tolyl)sulfamoyl)benzamide] | 38
2 | O=C(Nc1ccccc1OC(F)F)c1ccc(S(=O)(=O)Nc2ccccc2)cc1 [I-405, N-(2-(difluoromethoxy)phenyl)-4-(N-phenylsulfamoyl)benzamide] | 35
3 | N#Cc1cccc(NC(=O)c2ccc(S(=O)(=O)Nc3ccccc3F)cc2)c1 [I-406, N-(3-cyanophenyl)-4-(N-(2-fluorophenyl)sulfamoyl)benzamide] | 30
4 | O=C(Nc1cccc(C(F)(F)F)c1)c1ccc(S(=O)(=O)Nc2ccccc2F)cc1 [I-407, 4-(N-(2-fluorophenyl)sulfamoyl)-N-(3-(trifluoromethyl)phenyl)benzamide] | 30
5 | COc1ccc(NC(=O)c2ccc(S(=O)(=O)Nc3ccc(F)cc3)cc2)cc1 [I-408, 4-(N-(4-fluorophenyl)sulfamoyl)-N-(4-methoxyphenyl)benzamide] | 30
6 | COc1ccccc1NS(=O)(=O)c1ccc(C(=O)Nc2ccc3c(c2)OCO3)cc1 [I-409, N-(benzo[d][1,3]dioxol-5-yl)-4-(N-(2-methoxyphenyl)sulfamoyl)benzamide] | 30
7 | COc1ccccc1NS(=O)(=O)c1ccc(C(=O)Nc2cccc(C(F)(F)F)c2)cc1 [I-410, 4-(N-(2-methoxyphenyl)sulfamoyl)-N-(3-(trifluoromethyl)phenyl)benzamide] | 29
8 | Cc1ccccc1NS(=O)(=O)c1ccc(C(=O)Nc2ccc(Cl)cc2)cc1 [I-411, N-(4-chlorophenyl)-4-(N-(o-tolyl)sulfamoyl)benzamide] | 21
9 | COc1ccc([N+](=O)[O-])cc1NS(=O)(=O)c1ccc(C(=O)Nc2ccc(F)cc2F)cc1 [I-412, N-(2,4-difluorophenyl)-4-(N-(2-methoxy-5-nitrophenyl)sulfamoyl)benzamide] | 18
10 | COc1ccc(NS(=O)(=O)c2ccc(C(=O)Nc3cccc(C(C)=O)c3)cc2)cc1 [I-413, N-(3-acetylphenyl)-4-(N-(4-methoxyphenyl)sulfamoyl)benzamide] | 16
11 | COc1ccccc1NS(=O)(=O)c1ccc(C(=O)Nc2ccc(F)c([N+](=O)[O-])c2)cc1 [I-414, N-(4-fluoro-3-nitrophenyl)-4-(N-(2-methoxyphenyl)sulfamoyl)benzamide] | 15
12 | O=C(Nc1ccc2c(c1)OCCCO2)c1ccc(S(=O)(=O)Nc2ccc(F)cc2)cc1 [I-415, N-(3,4-dihydro-2H-benzo[b][1,4]dioxepin-7-yl)-4-(N-(4-fluorophenyl)sulfamoyl)benzamide] | 13
13 | COc1ccc(NS(=O)(=O)c2ccc(C(=O)Nc3ccc(F)cc3C)cc2)cc1 [I-416, N-(4-fluoro-2-methylphenyl)-4-(N-(4-methoxyphenyl)sulfamoyl)benzamide] | 13
14 | COc1ccc(OC)c(NC(=O)c2cccc(S(=O)(=O)N3c4ccccc4CC3C)c2)c1 (stereo not shown) [I-429, N-(2,5-dimethoxyphenyl)-3-((2-methylindolin-1-yl)sulfonyl)benzamide] | 73
15 | COc1ccc([N+](=O)[O-])cc1NS(=O)(=O)c1cccc(C(=O)Nc2ccc(F)c([N+](=O)[O-])c2)c1 [I-430, N-(4-fluoro-3-nitrophenyl)-3-(N-(2-methoxy-5-nitrophenyl)sulfamoyl)benzamide] | 72
16 | CCOC(=O)c1sc(NC(=O)c2cccc(S(=O)(=O)Nc3ccc(F)cc3)c2)cc1C [I-431, ethyl 5-(3-(N-(4-fluorophenyl)sulfamoyl)benzamido)-3-methylthiophene-2-carboxylate] | 68

Row | Compound | % Inhibition of Apyrase [%]
17 | CCOC(=O)c1sc(NC(=O)c2cccc(S(=O)(=O)Nc3ccccc3F)c2)cc1C [I-432, ethyl 5-(3-(N-(2-fluorophenyl)sulfamoyl)benzamido)-3-methylthiophene-2-carboxylate] | 66
18 | Cc1cc(Cl)ccc1NC(=O)c1ccc(Cl)c(S(=O)(=O)Nc2ccc(Cl)cc2C)c1 [I-433, 4-chloro-N-(4-chloro-2-methylphenyl)-3-(N-(4-chloro-2-methylphenyl)sulfamoyl)benzamide] | 65
19 | CCOc1ccccc1NC(=O)c1ccc(Cl)c(S(=O)(=O)N2CCc3ccccc32)c1 [I-434, 4-chloro-N-(2-ethoxyphenyl)-3-(indolin-1-ylsulfonyl)benzamide] | 65
20 | COc1ccc(NS(=O)(=O)c2cccc(C(=O)N3c4ccccc4CC3C)c2)cc1 (stereo not shown) [I-435, N-(4-methoxyphenyl)-3-(2-methylindoline-1-carbonyl)benzenesulfonamide] | 64
21 | COc1ccc(S(=O)(=O)N2CCc3ccccc32)cc1C(=O)Nc1ccccc1C [I-436, 5-(indolin-1-ylsulfonyl)-2-methoxy-N-(o-tolyl)benzamide] | 64
22 | CC1CCc2c(sc(NC(=O)c3cccc(S(=O)(=O)Nc4ccccc4Cl)c3)c2C#N)C1 (stereo not shown) [I-437, 3-(N-(2-chlorophenyl)sulfamoyl)-N-(3-cyano-6-methyl-4,5,6,7-tetrahydrobenzo[b]thiophen-2-yl)benzamide] | 64
23 | Cc1cccc(NS(=O)(=O)c2cc(C(=O)N3CCCc4ccccc43)ccc2C)c1 [I-438, 2-methyl-5-(1,2,3,4-tetrahydroquinoline-1-carbonyl)-N-(m-tolyl)benzenesulfonamide] | 63
24 | Nc1c(Cl)cc(NC(=O)c2cccc(S(=O)(=O)N3CCc4ccccc43)c2)cc1Cl [I-439, N-(4-amino-3,5-dichlorophenyl)-3-(indolin-1-ylsulfonyl)benzamide] | 63
25 | COc1ccc(S(=O)(=O)N2CCc3ccccc32)cc1C(=O)Nc1ccc(OC(F)F)c(Cl)c1 [I-440, N-(3-chloro-4-(difluoromethoxy)phenyl)-5-(indolin-1-ylsulfonyl)-2-methoxybenzamide] | 62
26 | O=C(c1cccc(S(=O)(=O)Nc2cccc(C(F)(F)F)c2)c1)N1CCCc2ccccc21 [I-441, 3-(1,2,3,4-tetrahydroquinoline-1-carbonyl)-N-(3-(trifluoromethyl)phenyl)benzenesulfonamide] | 62
27 | COc1ccc(S(=O)(=O)N2CCc3ccccc32)cc1C(=O)Nc1cccc(C#N)c1 [I-442, N-(3-cyanophenyl)-5-(indolin-1-ylsulfonyl)-2-methoxybenzamide] | 61
28 | O=C(Nc1cccc(F)c1)c1cccc(S(=O)(=O)N2CCc3ccccc32)c1 [I-443, N-(3-fluorophenyl)-3-(indolin-1-ylsulfonyl)benzamide] | 61
29 | O=C(Nc1cccc2cccnc12)c1cccc(S(=O)(=O)N2CCc3ccccc32)c1 [I-444, 3-(indolin-1-ylsulfonyl)-N-(quinolin-8-yl)benzamide] | 61
30 | CCc1ccccc1NC(=O)c1cccc(S(=O)(=O)N2c3ccccc3CC2C)c1 (stereo not shown) [I-445, N-(2-ethylphenyl)-3-((2-methylindolin-1-yl)sulfonyl)benzamide] | 61
31 | O=C(Nc1cccc(S(=O)(=O)N2CCCCC2)c1)c1cccc(S(=O)(=O)N2CCc3ccccc32)c1 [I-446, 3-(indolin-1-ylsulfonyl)-N-(3-(piperidin-1-ylsulfonyl)phenyl)benzamide] | 61
